Laboratory results taken from patent US8435947B2, “Endothelial nitric oxide synthase antagonists and uses thereof for inhibiting oxygen toxicity” (Medical College of Georgia Research Institute, Inc., priority 2010, dated 2013).

How the values were obtained:
eNOS-β-actin association [1] = biological target: T1, eNOS-β-actin association (Sus scrofa, UniProt Q6QAQ1); test: eNOS-β-actin co-immunoprecipitation in pulmonary artery endothelial cells; format: cell-based, pigs; conditions: peptide 20 μm, 3 h
T1 construct: endogenous in cells; host or cells: porcine pulmonary artery endothelial cells (PAEC)
Experimental: Transfection of Endothelial Cells with ABS Peptides Pulmonary artery endothelial cells were incubated with ABS peptides at 20 μm final concentration in MEM medium. […] Cells were then incubated for another 2 h before being used for co-immunoprecipitation and eNOS activity assays.
Determination of eNOS-β-Actin Association, NO Production, and Superoxide Formation in Endothelial Cells eNOS-β-Actin association was evaluated using co-immunoprecipitation.
This TAT tag is a novel method used to facilitate delivery of biologically active proteins or peptides into cells and tissues through the fusion of a protein transduction domain to the protein or peptide of interest (Gustafsson, A. B., et al. (2002) Circulation 106, 735-39). To confirm the efficiency of P326TAT and control peptide TAT to enter endothelial cells, FITC-labeled P326TAT and FITC-labeled control peptide TAT were used. […] Endothelial cells were incubated with P326TAT and control peptide TAT for 3 h, and then eNOS-β-actin association was evaluated by co-immunoprecipitation using anti-eNOS antibody.

[2] = test system: pulmonary artery endothelial cells; test: NO production in endothelial cells (NOx, SIEVERS); format: cell-based, pigs; conditions: peptide 20 μm 3 h, ionomycin 2 μM
Experimental: After wild-type and eNOS mutant transfection, ionomycin (2 μm) was added to the cells. After 30 min of incubation, culture medium was collected and ethanol-precipitated to remove proteins. 50 μl of the reaction mix were loaded to the SIEVERS machine for NOx measurement according to standard manufacturer's instructions (Church, J. E., and Fulton, D. (2006) J. Biol. Chem. 281, 1477-88). In some experiments, N^G-nitro-1-arginine methyl ester (L-NAME), a specific eNOS inhibitor, was used to inhibit NO production. […] For superoxide assay, after incubation with ABS peptides, the spin trap CMH was added to the cells. Superoxide from cells was trapped for 1 h, and then cells were scraped and subjected to EPR spectroscopy as previously described (Sud, N., et al. (2008) Am. J. Physiol. Cell Physiol. 294, C1407-18). Protein contents in the cell lysates were determined by Lowry's method.
To measure NO production, endothelial cells were incubated with ABS peptides for 3 h. Then ionomycin (2 μM) was added to the cells. After an additional 30 min, culture medium was collected and ethanol-precipitated to remove proteins. 50 μl of the reaction mix were loaded to the SIEVERS machine for NOx measurement as described above. For superoxide assay, after incubation with ABS peptides, the spin trap CMH was added to the cells. […]

[3] = test system: pulmonary artery endothelial cells; test: superoxide formation in endothelial cells (CMH spin trap, EPR); format: cell-based, pigs; conditions: endothelial cells, peptide 20 μm, versus control peptide TAT
Experimental: To measure NO production, endothelial cells were incubated with ABS peptides for 3 h. Then ionomycin (2 μM) was added to the cells. After an additional 30 min, culture medium was collected and ethanol-precipitated to remove proteins. 50 μl of the reaction mix were loaded to the SIEVERS machine for NOx measurement as described above. For superoxide assay, after incubation with ABS peptides, the spin trap CMH was added to the cells. Superoxide from cells was trapped for 1 h, and then cells were scraped and subjected to EPR spectroscopy.

eNOS-Hsp90 interaction = test: eNOS-Hsp90 co-immunoprecipitation in endothelial cells; format: cell-based, pigs; conditions: versus control peptide TAT-transfected cells
Experimental: To rule out the possibility that the effect of P326TAT on eNOS activity in endothelial cells is caused by its effect on eNOS-Hsp90 interaction, eNOS-Hsp90 association was measured by co-immunoprecipitation using eNOS antibody.

[4] = test system: pulmonary artery endothelial cells; test: endothelial monolayer wound repair; format: cell-based, pigs; conditions: P326TAT 20 μm
Experimental: Pulmonary artery endothelial cells were incubated with ABS peptides for 3 h. Then endothelial monolayer wound repair in the absence and presence of PEG-SOD (100 units/ml) and NOC-18 (10 μm) was measured as previously reported (Su, Y., et al. (2006) FASEB J. 20, 1443-51). Endothelial monolayer wound repair distance was expressed as the width of the wound before treatment subtracted by that after treatment.

eNOS-β-actin association [5] = biological target: T1, eNOS-β-actin association; test: eNOS-β-actin co-immunoprecipitation in PAEC under normoxia or hyperoxia; format: cell-based, pigs
Experimental: (§1) Third- to sixth-passage cells in monolayer culture were maintained in RPMI 1640 medium containing 4% fetal bovine serum and antibiotics (10 units/ml penicillin, 100 μg/ml streptomycin, 20 μg/ml gentamicin, and 2 μg/ml Fungizone) and were used 2 or 3 days after confluence.
(§2) To reduce β-actin availability to eNOS, the β-actin mRNA was silenced using its siRNA as previously reported by us (Kondrikov, D., et al. (2006) Am. J. Physiol. Lung Cell Mol. Physiol. 290, L41-L50).

eNOS = eNOS catalytic activity (L-citrulline formation) in hyperoxic PAEC; format: cell-based, pigs; conditions: 95% oxygen 24 h
Experimental: as §1
(§3) The homogenates were centrifuged at 100,000 g for 60 min at 4° C., and the total membrane pellet was resuspended in buffer B (bufferAplus 2.5 mM CaCl2). The resulting suspension was used for determination of eNOS activity by monitoring the formation of L-[^3H]citrulline from L-[^3H]arginine (Su, Y., et al. (2003) Am. J. Physiol. Cell Physiol. 284, C1542-C1549). To determine NO production, thapsigargin (100 nM) was added to the medium of endothelial cells following normoxic or hyperoxic exposure. After 60 min of incubation, culture medium was collected and ethanol-precipitated to remove proteins. 50 μl of the reaction mix were loaded to the SIEVERS machine for NOx (NO2 and NO3) measurement according to standard manufacturer's instruction as previously described (Church, J E., et al. (2006) J. Biol. Chem. 281, 1477-1488). Protein contents in the cell lysates were determined by Lowry's method.
as §2

PAEC [6] = test: NO production in hyperoxic PAEC; format: cell-based, pigs; conditions: 95% oxygen 24 h
Experimental: as §1, §3, §2

PAEC [7] = test: peroxynitrite formation in hyperoxic PAEC (APF fluorescence); format: cell-based, pigs; conditions: 95% oxygen 24 h
Experimental: as §1, §2

PAEC [8] = conditions: peptide 20 μM, 95% oxygen 24 h
Experimental: as §1

Sequence: RKKRRQRRRALGLRWYAL [P326TAT]
- amount of β-actin co-immunoprecipitated with eNOS (eNOS-β-actin association [1]): significantly decreased the amount of β-actin co-immunoprecipitated with eNOS
- NO production [2]: significantly decreased NO production
- superoxide formation [3]: much higher in P326TAT-transfected endothelial cells than control peptide TAT-transfected endothelial cells
- eNOS-Hsp90 interaction (Hsp90 co-precipitated with eNOS) (eNOS-Hsp90 interaction): did not affect eNOS-Hsp90 interaction
- endothelial monolayer wound repair [4]: exhibited lower capacity of wound repair
- hyperoxia-induced increase in β-actin co-immunoprecipitated with eNOS (eNOS-β-actin association [5]; 95% oxygen 24 h): prevented hyperoxia-induced increase in eNOS-β-actin co-immunoprecipitation
- amount of β-actin co-immunoprecipitated with eNOS (eNOS-β-actin association [5]; peptide 20 μM): significantly decreased the amount of β-actin co-immunoprecipitated with eNOS
- hyperoxia-induced increase in eNOS activity (eNOS): hyperoxic exposure did not induce an increase in eNOS activity
- hyperoxia-induced increase in NO formation (PAEC [6]): prevented hyperoxiainduced increases in NO and peroxynitrite formation
- hyperoxia-induced increase in peroxynitrite formation (PAEC [7]): prevented hyperoxiainduced increases in NO and peroxynitrite formation
- tyrosine nitration of proteins at 250, 100, 75, and 60 kDa, hyperoxia versus normoxia (PAEC [8]): comparable between normoxia and hyperoxia
